In patent US11447493B2 (Kinnate Biopharma Inc., priority 2018, dated 2022) one finds IC50 data, which are given here for 21 compounds.

What all share (test): Radiometric protein kinase assay (33PanQinase), Assay Condition A (thiol containing)
Holding throughout (type): biochemical

Assay [1] has as its target CDK2/CycA2 (Homo sapiens (Human), UniProt P24941). Conditions: thiol containing (1.2 mM DTT), ATP 0.3 μM. Here is the method:
(§1) The IC50 profile of test compounds was determined using three protein kinases.
(§2) The compounds were provided as pre-weighed powders in vials. The compounds were dissolved to 1×10^−02M by adding DMSO. 100 μl of each of the resulting stock solutions were transferred into column 2 of four 96 well “master plates”.
(§3) Prior to testing, the 1×10^−02M stock solutions in column 2 of the master plates were subjected to a serial, semi-logarithmic dilution using 100% DMSO as a solvent. […] Column 1 and 7 were filled with 100% DMSO as controls. Subsequently, 2×10 μl from each well of the serial diluted copy plates were aliquoted with a 96 channel pipettor into two identical sets of “compound dilution plates”.
(§4) In the process, 90 μl H2O were added to each well of a set of compound dilution plates. To minimize potential precipitation, the H2O was added to each plate only a few minutes before the transfer of the compound solutions into the assay plates. Each plate was shaken thoroughly, resulting in a “compound dilution plate/10% DMSO”.
(§5) For the assays, 5 μl solution from each well of the compound dilution plates/10% DMSO were transferred into the assay plates. The final volume of the assay was 50 μl. All compounds were tested at 10 final assay concentrations in the range from 1×10^−04M to 3×10^−09M, in singlicate. The final DMSO concentration in the reaction cocktails was 1% in all cases.
(§6) All protein kinases were expressed in Sf9 insect cells or in E. coli as recombinant GST-fusion proteins or His-tagged proteins, either as full-length or enzymatically active fragments. All kinases were produced from human cDNAs and purified by either GSH-affinity chromatography or immobilized metal. Affinity tags were removed from a number of kinases during purification. The purity of the protein kinases was examined by SDS-PAGE/Coomassie staining, the identity was checked by mass spectroscopy.
(§7) A radiometric protein kinase assay (^33PanQinase® Activity Assay) was used for measuring the kinase activity of the three protein kinases. All kinase assays were performed in 96-well FlashPlates™ from PerkinElmer (Boston, Mass., USA) in a 50 μl reaction volume. The reaction cocktail was pipetted in four steps in the following order: • 20 μl of assay buffer (standard buffer) • 5 μl of ATP solution (in H2O) • 5 μl of test compound (in 10% DMSO) • 20 μl enzyme/substrate mix
(§8) The reaction cocktails were incubated at 30° C. for 60 minutes. The reaction was stopped with 50 μl of 2% (v/v) H3PO4, plates were aspirated and washed two times with 200 μl 0.9% (w/v) NaCl. Incorporation of ^33Pi was determined with a microplate scintillation counter (Microbeta, Wallac). All assays were performed with a BeckmanCoulter/SAGIAN™ Core System.
(§9) The median value of the counts in column 1 (n=8) of each assay plate was defined as “low control”. This value reflects unspecific binding of radioactivity to the plate in the absence of a protein kinase but in the presence of the substrate. The median value of the counts in column 7 of each assay plate (n=8) was taken as the “high control”, i.e. full activity in the absence of any inhibitor. The difference between high and low control was taken as 100% activity.
(§10) As part of the data evaluation the low control value from a particular plate was subtracted from the high control value as well as from all 80 “compound values” of the corresponding plate. The residual activity (in %) for each well of a particular plate was calculated by using the following formula: Res. Activity (%)=100×[(cpm of compound−low control)/(high control−low control)]
(§11) The residual activities for each concentration and the compound IC50 values were calculated using Quattro Workflow V3.1.1 (Quattro Research GmbH, Munich, Germany). […] The fitting method used was a least-squares fit.

The target of assay [2] is CDK12 wt/CycK (Homo sapiens (Human), UniProt Q9NYV4). As to conditions: thiol containing (1.2 mM DTT), ATP 0.3 μM. The method, then: as §1, §2, §3, §4, §5, §6, §7, §8, §9, §10, §11
For assay [3], the target named is CDK7/CycH/MAT1 (Homo sapiens (Human), UniProt P50613). Conditions: thiol containing (1.2 mM DTT), ATP 3.0 μM. Here is the method:
as §1, §2, §3, §4, §5, §6, §7, §8, §9, §10, §11

Where only a bound is given, the exact number is not on record here.

CDK7/CycH/MAT1, sequence (P50613 whole entry): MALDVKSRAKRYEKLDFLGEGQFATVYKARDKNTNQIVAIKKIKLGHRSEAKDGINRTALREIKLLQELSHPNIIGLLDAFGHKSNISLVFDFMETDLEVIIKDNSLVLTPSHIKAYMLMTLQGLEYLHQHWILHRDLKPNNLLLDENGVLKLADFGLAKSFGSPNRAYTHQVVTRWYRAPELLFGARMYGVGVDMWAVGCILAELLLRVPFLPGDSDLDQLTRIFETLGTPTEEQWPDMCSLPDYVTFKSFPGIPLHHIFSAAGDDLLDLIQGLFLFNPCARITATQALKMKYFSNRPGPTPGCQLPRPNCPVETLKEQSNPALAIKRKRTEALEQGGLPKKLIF
CDK7/CycH/MAT1, sequence (P51946 whole entry partner): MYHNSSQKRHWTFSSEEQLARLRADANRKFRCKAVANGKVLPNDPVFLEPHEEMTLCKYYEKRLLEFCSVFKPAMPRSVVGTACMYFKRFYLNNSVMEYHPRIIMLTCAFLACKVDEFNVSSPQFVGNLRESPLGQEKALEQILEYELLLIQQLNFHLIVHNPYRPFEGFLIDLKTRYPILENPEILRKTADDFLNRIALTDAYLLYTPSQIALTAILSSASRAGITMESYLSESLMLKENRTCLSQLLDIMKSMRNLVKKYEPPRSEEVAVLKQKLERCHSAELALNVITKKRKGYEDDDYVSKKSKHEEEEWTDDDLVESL
CDK7/CycH/MAT1, sequence (P51948 whole entry partner): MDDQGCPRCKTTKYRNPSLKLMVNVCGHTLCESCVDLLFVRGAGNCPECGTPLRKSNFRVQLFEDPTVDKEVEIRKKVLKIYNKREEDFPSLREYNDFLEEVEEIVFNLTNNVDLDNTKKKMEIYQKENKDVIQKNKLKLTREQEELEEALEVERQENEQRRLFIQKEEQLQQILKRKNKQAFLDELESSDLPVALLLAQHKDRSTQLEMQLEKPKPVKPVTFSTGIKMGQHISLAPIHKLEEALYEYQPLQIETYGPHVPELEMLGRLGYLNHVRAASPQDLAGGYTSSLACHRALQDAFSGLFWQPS
CDK12 wt/CycK, sequence (Q9NYV4 whole entry): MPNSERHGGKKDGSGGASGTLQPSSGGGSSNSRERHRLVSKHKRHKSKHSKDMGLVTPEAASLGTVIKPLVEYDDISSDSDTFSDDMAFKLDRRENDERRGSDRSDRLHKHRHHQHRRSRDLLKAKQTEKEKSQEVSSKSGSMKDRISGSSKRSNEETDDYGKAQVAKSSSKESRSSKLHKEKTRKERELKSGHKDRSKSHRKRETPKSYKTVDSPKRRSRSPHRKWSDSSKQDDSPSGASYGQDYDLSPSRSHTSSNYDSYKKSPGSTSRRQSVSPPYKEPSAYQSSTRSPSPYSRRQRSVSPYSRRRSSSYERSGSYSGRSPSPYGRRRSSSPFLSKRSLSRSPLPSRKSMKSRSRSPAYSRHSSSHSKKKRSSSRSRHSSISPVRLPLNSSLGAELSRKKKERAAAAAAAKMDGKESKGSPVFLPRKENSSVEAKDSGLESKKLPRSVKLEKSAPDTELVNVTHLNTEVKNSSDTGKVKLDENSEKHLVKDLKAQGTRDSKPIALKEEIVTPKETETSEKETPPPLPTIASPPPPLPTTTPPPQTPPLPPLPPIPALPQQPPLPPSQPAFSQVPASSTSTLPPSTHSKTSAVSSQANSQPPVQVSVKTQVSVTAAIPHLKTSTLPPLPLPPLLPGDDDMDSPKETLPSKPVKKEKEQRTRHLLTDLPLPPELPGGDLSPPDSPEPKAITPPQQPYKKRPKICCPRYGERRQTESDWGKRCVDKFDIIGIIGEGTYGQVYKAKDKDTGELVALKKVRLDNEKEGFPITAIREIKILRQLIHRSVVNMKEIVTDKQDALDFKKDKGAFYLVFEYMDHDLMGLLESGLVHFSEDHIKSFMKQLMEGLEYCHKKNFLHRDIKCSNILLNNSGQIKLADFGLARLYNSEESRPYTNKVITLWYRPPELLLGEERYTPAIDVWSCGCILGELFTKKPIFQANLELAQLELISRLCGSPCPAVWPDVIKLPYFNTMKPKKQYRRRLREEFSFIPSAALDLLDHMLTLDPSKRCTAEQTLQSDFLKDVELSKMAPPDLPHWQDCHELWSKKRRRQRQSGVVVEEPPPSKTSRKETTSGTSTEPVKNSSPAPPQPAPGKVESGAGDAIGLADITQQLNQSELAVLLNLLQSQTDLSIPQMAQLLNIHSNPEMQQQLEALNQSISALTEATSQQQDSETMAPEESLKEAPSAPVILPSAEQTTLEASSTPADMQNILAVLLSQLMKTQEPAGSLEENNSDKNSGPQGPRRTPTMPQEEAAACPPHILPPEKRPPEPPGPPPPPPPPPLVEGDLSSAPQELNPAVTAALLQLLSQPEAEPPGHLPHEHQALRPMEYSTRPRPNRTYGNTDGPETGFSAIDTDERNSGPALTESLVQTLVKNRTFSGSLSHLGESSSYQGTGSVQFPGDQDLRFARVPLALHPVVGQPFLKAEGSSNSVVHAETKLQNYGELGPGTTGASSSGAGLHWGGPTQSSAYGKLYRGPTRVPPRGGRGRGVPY
CDK12 wt/CycK, sequence (O75909 whole entry partner): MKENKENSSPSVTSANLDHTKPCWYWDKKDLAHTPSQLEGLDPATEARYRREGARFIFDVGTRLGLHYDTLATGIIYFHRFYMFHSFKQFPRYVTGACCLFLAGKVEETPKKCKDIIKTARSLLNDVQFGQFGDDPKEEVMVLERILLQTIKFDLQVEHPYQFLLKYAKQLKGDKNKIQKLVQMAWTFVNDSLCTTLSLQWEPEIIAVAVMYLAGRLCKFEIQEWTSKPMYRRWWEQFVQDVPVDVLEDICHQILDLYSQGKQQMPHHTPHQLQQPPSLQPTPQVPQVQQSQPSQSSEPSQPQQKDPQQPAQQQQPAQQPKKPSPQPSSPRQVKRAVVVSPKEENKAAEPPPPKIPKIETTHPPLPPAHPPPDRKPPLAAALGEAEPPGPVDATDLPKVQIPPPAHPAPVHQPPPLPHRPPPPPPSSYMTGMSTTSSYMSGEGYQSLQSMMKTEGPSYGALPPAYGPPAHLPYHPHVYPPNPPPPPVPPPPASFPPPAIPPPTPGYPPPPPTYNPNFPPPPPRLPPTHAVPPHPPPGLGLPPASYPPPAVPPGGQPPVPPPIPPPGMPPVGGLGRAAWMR

With `CCC(=O)Nc1ccc(C(=O)N2CCC[C@@H](Nc3ncc4ccccc4n3)C2)cc1` [Example 17, (R)-N-(4-(3-(quinazolin-2-ylamino)piperidine-1-carbonyl)phenyl)propionamide], the 50% inhibitory concentration (IC50) in assay [1], in assay [2] and in assay [3] was 30 to 100 µM throughout.

Regarding `CCC(=O)Nc1ccc(C(=O)N2CCC[C@@H](Nc3cc4ccccc4cn3)C2)cc1` [Example 18, (R)-N-(4-(3-(isoquinolin-3-ylamino)piperidine-1-carbonyl)phenyl)propionamide], the figures for the IC50 in assay [1], in assay [2] and in assay [3] were 30 to 100 µM, 10 to 30 µM and 30 to 100 µM, respectively.

Consider `CCC(=O)Nc1ccc(C(=O)N2CCC[C@@H](Nc3ncc4cc(Cl)ccc4n3)C2)cc1` [Example 19, (R)-N-(4-(3-((6-chloroquinazolin-2-yl)amino)piperidine-1-carbonyl)phenyl)propionamide], for which the IC50 in assay [1], in assay [2] and in assay [3] was 30 to 100 µM throughout.

Regarding `CCC(=O)Nc1ccc(C(=O)N2CCC[C@@H](Nc3ncc4ccc(OC)cc4n3)C2)cc1` [Example 20, (R)-N-(4-(3-((7-methoxyquinazolin-2-yl)amino)piperidine-1-carbonyl)phenyl)propionamide], the IC50 in assay [1], in assay [2] and in assay [3] was 30 to 100 µM each time.

Turning to `CCC(=O)Nc1ccc(C(=O)N2CCC[C@@H](Nc3ncc4ccc(S(C)(=O)=O)cc4n3)C2)cc1` [Example 21, (R)-N-(4-(3-((7-(methylsulfonyl)quinazolin-2-yl)amino)piperidine-1-carbonyl)phenyl)propionamide], the IC50 was in the range of 10 to 30 µM in assay [1], 10 to 30 µM in assay [2] and 30 to 100 µM in assay [3].

Take `CCC(=O)Nc1ccc(C(=O)N2CCC[C@@H](Nc3ncc4ccc(Cl)cc4n3)C2)cc1` [Example 22, (R)-N-(4-(3-((7-chloroquinazolin-2-yl)amino)piperidine-1-carbonyl)phenyl)propionamide]: the IC50 in assay [1], in assay [2] and in assay [3] was 30 to 100 µM each time.

With `CCC(=O)Nc1ccc(C(=O)N2CCC[C@@H](Nc3ncc4ccc(F)cc4n3)C2)cc1` [Example 23, (R)-N-(4-(3-((7-fluoroquinazolin-2-yl)amino)piperidine-1-carbonyl)phenyl)propionamide], the IC50 in assay [1], in assay [2] and in assay [3] was 30 to 100 µM in each case.

Turning to `CCC(=O)Nc1ccc(C(=O)N2CCC[C@@H](Nc3ncc4ccc(=O)n(C(C)C)c4n3)C2)cc1` [Example 24, (R)-N-(4-(3-((8-isopropyl-7-oxo-7,8-dihydropyrido[2,3-d]pyrimidin-2-yl)amino)piperidine-1-carbonyl)phenyl)propionamide], the results for the IC50 in assay [1], in assay [2] and in assay [3] were 10 to 30 µM, 10 to 30 µM and 30 to 100 µM, respectively.

`C=CC(=O)Nc1ccc(C(=O)N2CC[C@@H](Nc3ncc4cc(Cl)ccc4n3)C2)cc1` [Example 25, (R)-N-(4-(3-((6-chloroquinazolin-2-yl)amino)pyrrolidine-1-carbonyl)phenyl)acrylamide]: the figures for the IC50 in assay [1], in assay [2] and in assay [3] were 0.1 to 1 µM, at most 0.1 µM and 1 to 10 µM, respectively.

Turning to `C=CC(=O)Nc1ccc(C(=O)N2CC[C@@H](Nc3ncc4cc(OC)ccc4n3)C2)cc1` [Example 29, (R)-N-(4-(3-((6-methoxyquinazolin-2-yl)amino)pyrrolidine-1-carbonyl)phenyl)acrylamide], the figures for the IC50 in assay [1], in assay [2] and in assay [3] were 10 to 30 µM, 0.1 to 1 µM and 30 to 100 µM, respectively.

As for `C=CC(=O)Nc1ccc(C(=O)N2CC[C@@H](Nc3ncc4cc(C)ccc4n3)C2)cc1` [Example 30, (R)-N-(4-(3-((6-methylquinazolin-2-yl)amino)pyrrolidine-1-carbonyl)phenyl)acrylamide], the results for the IC50 in assay [1], in assay [2] and in assay [3] were 1 to 10 µM, 0.1 to 1 µM and 1 to 10 µM, respectively.

`C=CC(=O)Nc1ccc(C(=O)N2CC[C@@H](Nc3ncc4ccncc4n3)C2)cc1` [Example 31, (R)-N-(4-(3-(pyrido[3,4-d]pyrimidin-2-ylamino)pyrrolidine-1-carbonyl)phenyl)acrylamide]: the figures for the 50% inhibitory concentration (IC50) in assay [1], in assay [2] and in assay [3] were 0.1 to 1 µM, at most 0.1 µM and 1 to 10 µM, respectively.

As for `C=CC(=O)Nc1ccc(C(=O)N2CC[C@@H](Nc3ncc4ccc(C)cc4n3)C2)cc1` [Example 32, (R)-N-(4-(3-((7-methylquinazolin-2-yl)amino)pyrrolidine-1-carbonyl)phenyl)acrylamide], the half-maximal inhibitory concentration (IC50) in assay [1] is 0.1 to 1 µM; in assay [2], at most 0.1 µM; in assay [3] it was 1 to 10 µM.

Turning to `C=CC(=O)Nc1ccc(C(=O)N2CC[C@@H](Nc3ncc4ccc(F)cc4n3)C2)cc1` [Example 35, (R)—N-(4-(3-((7-fluoroquinazolin-2-yl)amino)pyrrolidine-1-carbonyl)phenyl)acrylamide], the values for the IC50 in assay [1], in assay [2] and in assay [3] were 1 to 10 µM, at most 0.1 µM and 1 to 10 µM, respectively.

As to `C=CC(=O)Nc1ccc(C(=O)N2CC[C@@H](Nc3ncc4ccc(Cl)cc4n3)C2)cc1` [Example 36, (R)—N-(4-(3-((7-chloroquinazolin-2-yl)amino)pyrrolidine-1-carbonyl)phenyl)acrylamide], the IC50 lay in the range of 0.1 to 1 µM in assay [1], 0.1 to 1 µM in assay [2] and 1 to 10 µM in assay [3].

On to `C=CC(=O)Nc1ccc(C(=O)N2CC[C@@H](Nc3ncc4ccc(C(=O)O)cc4n3)C2)cc1` [Example 38, (R)-2-((1-(4-acrylamidobenzoyl)pyrrolidin-3-yl)amino)quinazoline-7-carboxylic Acid], for which the IC50 was at most 0.1 µM in assay [1], at most 0.1 µM in assay [2] and 0.1 to 1 µM in assay [3].

Regarding `C=CC(=O)Nc1ccc(C(=O)N2CC[C@@H](Nc3ncc4ccc(C(N)=O)cc4n3)C2)cc1` [Example 39, (R)-2-((1-(4-acrylamidobenzoyl)pyrrolidin-3-yl)amino)quinazoline-7-carboxamide], the IC50 in assay [1] was at most 0.1 µM; in assay [2], at most 0.1 µM; in assay [3], 0.1 to 1 µM.

As to `C=CC(=O)Nc1ccc(C(=O)N2CC[C@@H](Nc3ncc4ccc(C(=O)NC)cc4n3)C2)cc1` [Example 40, (R)-2-((1-(4-acrylamidobenzoyl)pyrrolidin-3-yl)amino)-N-methylquinazoline-7-carboxamide], the IC50 is at most 0.1 µM in assay [1], at most 0.1 µM in assay [2] and 0.1 to 1 µM in assay [3].

As to `C=CC(=O)Nc1ccc(C(=O)N2CC[C@@H](Nc3ncc4ccc(C(=O)N(C)C)cc4n3)C2)cc1` [Example 41, (R)-2-((1-(4-acrylamidobenzoyl)pyrrolidin-3-yl)amino)-N,N-dimethylquinazoline-7-carboxamide], the figures for the IC50 in assay [1], in assay [2] and in assay [3] were 0.1 to 1 µM, at most 0.1 µM and 1 to 10 µM, respectively.

In the case of `C=CC(=O)Nc1ccc(C(=O)N2CC[C@@H](Nc3ncc4ccc(=O)[nH]c4n3)C2)cc1` [Example 42, (R)—N-(4-(3-((7-oxo-7,8-dihydropyrido[2,3-d]pyrimidin-2-yl)amino)pyrrolidine-1-carbonyl)phenyl)acrylamide], the IC50 in assay [1] is 0.1 to 1 µM; in assay [2], at most 0.1 µM; in assay [3] it was 1 to 10 µM.

In the case of `CCC(=O)Nc1ccc(C(=O)N2CC[C@@H](Nc3cc4ccccc4cn3)C2)cc1` [Example 45, (R)—N-(4-(3-(isoquinolin-3-ylamino)pyrrolidine-1-carbonyl)phenyl)propionamide], the results for the 50% inhibitory concentration (IC50) in assay [1], in assay [2] and in assay [3] were 1 to 10 µM, 0.1 to 1 µM and 1 to 10 µM, respectively.

A word on the IC50: it is the concentration needed to halve the response being measured. A high value points to weaker potency in that assay.
